Columns and labels:
[1] = tested on: CD8+ T cells of healthy HLA-A*02+ donors; test: In vitro immunogenicity: priming of CD8+ T cells with aAPCs loaded with peptide/MHC and anti-CD28, multimer staining; assay type: cell-based, human; conditions: Table 11A; for donors (positive): percentage of positive donors; for wells (positive): percentage of positive wells
Text: In order to obtain information regarding the immunogenicity of the TUMAPs of the present invention, the inventors performed investigations using an in vitro T-cell priming assay based on repeated stimulations of CD8+ T cells with artificial antigen presenting cells (aAPCs) loaded with peptide/MHC complexes and anti-CD28 antibody.
In order to perform in vitro stimulations by artificial antigen presenting cells loaded with peptide-MHC complex (pMHC) and anti-CD28 antibody, the inventors first isolated CD8+ T cells from fresh HLA-A*02 leukapheresis products via positive selection using CD8 microbeads (Miltenyi Biotec, Bergisch-Gladbach, Germany) of healthy donors obtained from the University clinics Mannheim, Germany, after informed consent.
PBMCs and isolated CD8+ lymphocytes were incubated in T-cell medium (TCM) until use consisting of RPMI-Glutamax (Invitrogen, Karlsruhe, Germany) supplemented with 10% heat inactivated human AB serum (PAN-Biotech, Aidenbach, Germany), 100 U/ml Penicillin/100 μg/ml Streptomycin (Cambrex, Cologne, Germany), 1 mM sodium pyruvate (CC Pro, Oberdorla, Germany), 20 μg/ml Gentamycin (Cambrex). 2.5 ng/ml IL-7 (PromoCell, Heidelberg, Germany) and 10 U/ml IL-2 (Novartis Pharma, Nürnberg, Germany) were also added to the TCM at this step.
Generation of pMHC/anti-CD28 coated beads, T-cell stimulations and readout was performed in a highly defined in vitro system using four different pMHC molecules per stimulation condition and 8 different pMHC molecules per readout condition.
The purified co-stimulatory mouse IgG2a anti human CD28 Ab 9.3 (Jung et al., 1987) was chemically biotinylated using Sulfo-N-hydroxysuccinimidobiotin as recommended by the manufacturer (Perbio, Bonn, Germany). Beads used were 5.6 μm diameter streptavidin coated polystyrene particles (Bangs Laboratories, Illinois, USA).
pMHC used for positive and negative control stimulations were A*0201/MLA-001 (peptide […] from modified Melan-A/MART-1) and A*0201/DDX5-001 ([…] from DDX5), respectively.
800.000 beads/200 μl were coated in 96-well plates in the presence of 4×12.5 ng different biotin-pMHC, washed and 600 ng biotin anti-CD28 were added subsequently in a volume of 200 μl. Stimulations were initiated in 96-well plates by co-incubating […] CD8+ T cells with 2×10^5 washed coated beads in 200 μl TCM supplemented with 5 ng/ml IL-12 (PromoCell) for 3 days at 37° C. Half of the medium was then exchanged by fresh TCM supplemented with 80 U/ml IL-2 and incubating was continued for 4 days at 37° C. This stimulation cycle was performed for a total of three times. For the pMHC multimer readout using 8 different pMHC molecules per condition, a two-dimensional combinatorial coding approach was used as previously described (Andersen et al., 2012) with minor modifications encompassing coupling to 5 different fluorochromes. Finally, multimeric analyses were performed by staining the cells with Live/dead near IR dye (Invitrogen, Karlsruhe, Germany), CD8-FITC antibody clone SK1 (BD, Heidelberg, Germany) and fluorescent pMHC multimers. For analysis, a BD LSRII SORP cytometer equipped with appropriate lasers and filters was used. Peptide specific cells were calculated as percentage of total CD8+ cells. Evaluation of multimeric analysis was done using the FlowJo software (Tree Star, Oreg., USA). In vitro priming of specific multimer+ CD8+ lymphocytes was detected by comparing to negative control stimulations.
Exemplary flow cytometry results after TUMAP-specific multimer staining for three peptides of the invention are shown in FIG. 3 and FIG. 4 together with corresponding negative controls.
CD8+ T cells were primed using artificial APCs coated with anti-CD28 mAb and HLA-A*02 in complex with IMA-APOB-002 (Seq ID No 7) peptide (A, right panel) or IMA-APOB-003 (B, right panel, Seq ID No 1), or IMA-ALDH1L1-001 (C, right panel, Seq ID No 2), respectively. […]

[2] = target: HLA-A*02 (Homo sapiens, UniProt P04439, D140Y/D185E/D98H/E176V/E277Q/G131W/G231S/I119V/I121R/I166T/I218V/N151K/N90K/P208A/P217A/Q86G/Q94H/R138H/R169H); test: UV-ligand exchange / peptide binding to MHC class I (beta2m ELISA); conditions: peptide exchange yield
How it was run: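 Peptide-MHC complexes generated by UV-mediated exchange of a photocleavable ligand for the test peptide. Exchange yield measured by streptavidin-capture ELISA detecting β2m of stabilized complexes (HRP anti-β2m, TMB, 450 nm). Samples diluted 100-fold, quantified against refolded HLA-A*0201 monomer standards (15-500 ng/ml).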

[3] = Table 10A, UV-ligand exchange, β2m ELISA

Substance	donors (positive) [1]	wells (positive) [1]	Peptide exchange (MHC class I binding score) [2, 3]	Peptide exchange (MHC class I binding score) ([2]; Table 10B, HLA-A*02 peptides)
1 (VMAPFTMTI; listed as Homo sapiens) [compound 1]	++++ (>=70% = ++++)	++ (20%-49% = ++)	++++ (>=75% = ++++)	“++++” (≥75% = ++++)
2 (KLQAGTVFV; listed as Homo sapiens) [compound 2]	++++ (>=70% = ++++)	++ (20%-49% = ++)	+++ (50%-75% = +++)	“+++” (≥50 = +++)
4 (KLQDFSDQL; listed as Homo sapiens) [compound 4]	++++ (>=70% = ++++)	+ (<20% = +)	++++ (>=75% = ++++)	“++++” (≥75% = ++++)
6 (KLSPTVVGL; listed as Homo sapiens) [compound 6]	++ (20%-49% = ++)	+ (<20% = +)	+++ (50%-75% = +++)	“+++” (≥50 = +++)
7 (ALVDTLKFV; listed as Homo sapiens) [compound 7]	++++ (>=70% = ++++)	+ (<20% = +)	++++ (>=75% = ++++)	“++++” (≥75% = ++++)
10 (SLLEEFDFHV; listed as Homo sapiens) [compound 10]	++ (20%-49% = ++)	+ (<20% = +)	++++ (>=75% = ++++)	“++++” (≥75% = ++++)
11 (SLSQELVGV; listed as Homo sapiens) [compound 11]	++ (20%-49% = ++)	+ (<20% = +)	+++ (50%-75% = +++)	“+++” (≥50 = +++)
12 (FLAELAYDL; listed as Homo sapiens) [compound 12]	++++ (>=70% = ++++)	+ (<20% = +)	++++ (>=75% = ++++)	“++++” (≥75% = ++++)
14 (ALADLTGTVV; listed as Homo sapiens) [compound 14]	++ (20%-49% = ++)	+ (<20% = +)	++++ (>=75% = ++++)	“++++” (≥75% = ++++)
15 (LLYGHTVTV; listed as Homo sapiens) [compound 15]	++++ (>=70% = ++++)	++ (20%-49% = ++)	++++ (>=75% = ++++)	“++++” (≥75% = ++++)
16 (SLLGGNIRL; listed as Homo sapiens) [compound 16]	++++ (>=70% = ++++)	++ (20%-49% = ++)	++++ (>=75% = ++++)	“++++” (≥75% = ++++)
219 (GVMAGDIYSV; listed as Homo sapiens) [compound 219]	++++ (>=70% = ++++)	+ (<20% = +)	++++ (>=75% = ++++)	“++++” (≥75% = ++++)
224 (ALASVIKEL; listed as Homo sapiens) [compound 224]	+++ (50%-69% = +++)	+ (<20% = +)	++++ (>=75% = ++++)	“+++” (≥50 = +++)
225 (KMDPVAYRV; listed as Homo sapiens) [compound 225]	++++ (>=70% = ++++)	+++ (50%-69% = +++)	+++ (50%-75% = +++)	“+++” (≥50 = +++)
226 (AVLGPLGLQEV; listed as Homo sapiens) [compound 226]	++++ (>=70% = ++++)	+ (<20% = +)	+++ (50%-75% = +++)	“+++” (≥50 = +++)
227 (ALLKVNQEL; listed as Homo sapiens) [compound 227]	+++ (50%-69% = +++)	+ (<20% = +)	++++ (>=75% = ++++)	“++++” (≥75% = ++++)
228 (YLITSVELL; listed as Homo sapiens) [compound 228]	++ (20%-49% = ++)	+ (<20% = +)	++++ (>=75% = ++++)	“++++” (≥75% = ++++)
230 (VLTEFTREV; listed as Homo sapiens) [compound 230]	++++ (>=70% = ++++)	+ (<20% = +)	++++ (>=75% = ++++)	“++++” (≥75% = ++++)
232 (KLAEIVKQV; listed as Homo sapiens) [compound 232]	+++ (50%-69% = +++)	+ (<20% = +)	++++ (>=75% = ++++)	“++++” (≥75% = ++++)
301 (VLADFGARV; listed as Homo sapiens) [compound 301]	++++ (>=70% = ++++)	++ (20%-49% = ++)	+++ (50%-75% = +++)	–
304 (SLIDQFFGV; listed as Homo sapiens) [compound 304]	++++ (>=70% = ++++)	+ (<20% = +)	++++ (>=75% = ++++)	–

Reference: US10064926B2, “Peptides and combination of peptides for use in immunotherapy against hepatocellular carcinoma (HCC) and other cancers” (Immatics biotechnologies GmbH, priority 2014, dated 2018)
